Assay: Discoloration (degradation) of sucralose during encapsulation
Type: physicochemical
Protocol: As one example of a hydrophilic coating, sucralose was mixed with powdered polyvinyl acetate and 5% fat and extruded at 110° C. […] In an alternative encapsulation, sucralose was mixed with powdered polyvinyl acetate, 2% polyvinylpyrollidone and 1% magnesium stearate and pressed into tablets at 25° C. The tablets were then heated to 80° C., which softened the polymer and fused the polyvinylacetate with the sucralose. […] Thereafter, the tablets were cooled, ground and sized and analyzed. […] As another example, a polymer/sweetener matrix was prepared as described above in this paragraph. A solution of gum arabic was made and coated on the polymer/sweetener matrix particles using the method described in U.S. Pat. No. 3,196,827, the relevant portions of which are incorporated herein by reference. Coating levels were 20, 30, 40, and 50% for different samples. Chewing gums prepared with the coated polymer/sweetener matrix particles were chewed by a panel with bolus collection at 5, 10, 15, 20 minutes. Residual sucralose was analyzed in each chewed bolus.

discoloration indicating degradation of the sucralose (mixed with powdered polyvinyl acetate and 5% fat, extruded at 110° C.): Extensive discoloration | discoloration of the sucralose (mixed with powdered polyvinyl acetate, 2% polyvinylpyrollidone, 1% magnesium stearate, pressed into tablets at 25° C., heated to 80° C.): No discoloration | discoloration of the sucralose (same tablets after being cooled, ground, sized and analyzed): no discoloration
SMILES: OC[C@H]1O[C@H](O[C@]2(CCl)O[C@H](CCl)[C@@H](O)[C@@H]2O)[C@H](O)[C@@H](O)[C@H]1Cl [sucralose]

From patent US20090074911A1, “Indicia-Bearing Package For Delivery Systems” (CADBURY ADAMS USA LLC, priority 2005, published 2009)
